Laboratory results as given in EP4603105A1, “PHARMACEUTICAL COMPOSITION CONTAINING CYCLIC COMPOUND HAVING SELECTIVE KRAS INHIBITORY EFFECT AGAINST HRAS AND NRAS” (CHUGAI SEIYAKU KABUSHIKI KAISHA, priority 2022, dated 2024).
pIC50, pKd: −log10 of the molar value.

How the values were obtained:
[1] = target: GDP-bound KRAS wild-type protein (Homo sapiens, UniProt P01116); test: Binding to KRAS by surface plasmon resonance (SPR), dissociation constant KD
Outline: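 Biotinylated GDP-bound RAS was captured at about 100–300 RU. Running buffer: HBS pH 7.4, 10 mM MgCl2, 10 µM GDP, 1 mM DTT, 0.01% Tween 20, 4% DMSO.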

[2] = target: GDP-bound NRAS wild-type protein (Homo sapiens, UniProt P01111); test: Binding to NRAS by surface plasmon resonance (SPR), KD and KD ratio to KRAS
Outline: (§1)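 GDP-loaded biotinylated Avi-tag RAS proteins (E. coli-expressed) captured on a Biotin CAPture chip at ~100–300 RU; single-cycle kinetics at 30°C, 100 µL/min, 75 s injections of rising compound concentrations. HBS pH 7.4 running buffer with 1 mM DTT, 10 mM MgCl2, 10 µM GDP, 4% DMSO. KD from 1:1 binding fit.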

HRAS wild-type protein = HRAS wild-type protein (Homo sapiens, UniProt P01112); test: Binding to HRAS by surface plasmon resonance (SPR), KD and KD ratio to KRAS
Outline: as §1

[3] = system: human lung cancer strain NCI-H441; type: cell-based
Outline: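 Readout: […] after the ATP-based reagent. Compound: serial dilutions in dimethyl sulfoxide.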

[4] = Single Cycle Kinetics, 1:1 binding model
[5] = ratio of KD value for GDP-bound NRAS wild-type protein to KD value for KRAS (SPR)
[6] = ratio of KD value for HRAS wild-type protein to KD value for KRAS (SPR)
[7] = ratio of KD for GDP-bound NRAS wild-type protein to KD for KRAS
[8] = ratio of KD for HRAS wild-type protein to KD for KRAS

Chain of HRAS wild-type protein (P01112 whole entry): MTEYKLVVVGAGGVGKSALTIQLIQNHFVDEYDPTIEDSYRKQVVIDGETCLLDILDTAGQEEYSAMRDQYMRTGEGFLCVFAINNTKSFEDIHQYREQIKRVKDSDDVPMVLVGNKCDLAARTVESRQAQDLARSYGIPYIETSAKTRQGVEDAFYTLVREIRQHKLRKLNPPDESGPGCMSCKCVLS
Chain of GDP-bound NRAS wild-type protein (P01111 whole entry): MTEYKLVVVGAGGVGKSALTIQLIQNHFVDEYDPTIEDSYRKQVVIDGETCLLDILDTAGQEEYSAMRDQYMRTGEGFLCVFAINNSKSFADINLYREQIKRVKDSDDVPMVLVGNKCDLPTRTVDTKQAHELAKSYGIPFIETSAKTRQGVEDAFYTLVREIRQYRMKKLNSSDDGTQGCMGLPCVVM
Chain of GDP-bound KRAS wild-type protein (P01116 1-188 isoform P01116-2): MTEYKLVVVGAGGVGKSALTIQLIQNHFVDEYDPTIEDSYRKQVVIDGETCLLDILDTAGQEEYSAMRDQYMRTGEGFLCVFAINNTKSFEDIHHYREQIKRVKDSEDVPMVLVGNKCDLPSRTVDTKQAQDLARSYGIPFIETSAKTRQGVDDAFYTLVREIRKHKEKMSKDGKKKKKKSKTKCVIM

Row | SMILES | pKd [1, 4] | pIC50 [3] | pKd ([1]; Single Cycle Kinetics) | pKd ([1]; 1:1 binding model) | NRAS /KRAS [2, 5] | HRAS /KRAS (HRAS wild-type protein; [6]) | NRAS /KRAS [2, 7] | HRAS /KRAS (HRAS wild-type protein; [8]) | NRAS /KRAS ([2]; ratio of the KD value with respect to GDP-bound NRAS wild-type protein to the KD value with respect to KRAS) | HRAS /KRAS (HRAS wild-type protein; ratio of the KD value with respect to HRAS wild-type protein to the KD value with respect to KRAS)
1 | CCO[C@@H]1C[C@H]2C(=O)NC3(CCC3)C(=O)N(C)[C@@H](C(CC)CC)C(=O)N(C)[C@H](C)CC(=O)N(C)[C@@H](CC(C)C)C(=O)N[C@@H]([C@@H](C)CC)C(=O)N(C)CC(=O)N(C)[C@H]3C/C=C\CCN(C3=O)[C@@H](Cc3ccc(F)cc3C)C(=O)N(C)CC(=O)N[C@@H](CCc3cc(F)c(C(F)(F)F)c(F)c3)C(=O)N2C1 [PP1524] | 8.24 | 6.36 | – | – | B (a compound having 3 or more and less than 10 is denoted as B) | B (a compound having 3 or more and less than 10 is denoted as B) | – | – | – | –
2 | CCO[C@@H]1C[C@H]2C(=O)NC3(CCC3)C(=O)N(C)[C@@H](C(CC)CC)C(=O)N(C)[C@H](C(=O)N3CCOCC3)CC(=O)N(C)[C@@H](CC(C)C)C(=O)N[C@@H]([C@@H](C)CC)C(=O)N(C)CC(=O)N(C)[C@H]3CCCCCN(C3=O)[C@@H](Cc3ccc(C(F)(F)F)cc3)C(=O)N(C)CC(=O)N[C@@H](CCc3cc(F)c(C(F)(F)F)c(F)c3)C(=O)N2C1 [PP0820] | – | 7.22 | 8.92 | – | – | – | A (a compound having 10 or more and less than 20 is denoted as A) | B (a compound having 3 or more and less than 10 is denoted as B) | – | –
3 | CCCO[C@@H]1C[C@H]2C(=O)N(C)C3(CC(C)(C)C3)C(=O)N(C)[C@@H](C(CC)CC)C(=O)N(C)[C@H](C(=O)N(C)C)CC(=O)N(C)[C@@H](COC)C(=O)N[C@@H]([C@@H](C)CC)C(=O)N(C)CC(=O)N(C)[C@H]3C/C=C\CCN(C3=O)[C@@H](Cc3ccc(C)cc3)C(=O)N(C)CC(=O)N[C@@H](CCc3ccc(Cl)c(Cl)c3)C(=O)N2C1 [PP2812] | – | 7.39 | – | 9.25 | – | – | AA (a compound having 20 or more is denoted as AA) | A (a compound having 10 or more and less than 20 is denoted as A) | – | –
4 | CCO[C@@H]1C[C@H]2C(=O)NC3(CC(C)(C)C3)C(=O)N(C)[C@@H](C3CCCC3)C(=O)N(C)[C@H](C(=O)N(C)C)CC(=O)N(C)[C@@H]([C@H](C)OC)C(=O)N[C@@H]([C@@H](C)CC)C(=O)N3CCC[C@H]3C(=O)N(C)[C@H]3C/C=C\CCN(C3=O)[C@@H](Cc3ccc(C)cc3)C(=O)N(C)CC(=O)N[C@@H](CCc3cc(F)c(C(F)(F)F)c(F)c3)C(=O)N2C1 [PP3199] | – | 7.30 | – | 9.10 | – | – | A (a compound having 10 or more and less than 20 is denoted as A) | A (a compound having 10 or more and less than 20 is denoted as A) | – | –
5 | C#CC[C@H]1C(=O)N[C@@H]([C@@H](C)CC)C(=O)N(C)CC(=O)N(C)[C@H]2C/C=C\CCN(C2=O)[C@@H](Cc2ccc(C(F)(F)F)cc2)C(=O)N(C)CC(=O)N[C@@H](CCc2ccc(C(F)(F)F)c(OC)c2)C(=O)N2C[C@H](OCC)C[C@H]2C(=O)NC2(CCCC2)C(=O)N(C)[C@@H](C2CCC2)C(=O)N(C)[C@H](C(=O)N2CCCCC2)CC(=O)N1C [PP3131] | – | 6.80 | – | 8.55 | – | – | A (a compound having 10 or more and less than 20 is denoted as A) | A (a compound having 10 or more and less than 20 is denoted as A) | – | –

The next compounds have a higher pIC50 [3] than those just listed; values first:

Row | pKd [1, 4] | pIC50 [3] | pKd ([1]; Single Cycle Kinetics) | pKd ([1]; 1:1 binding model) | SMILES | NRAS /KRAS [2, 5] | HRAS /KRAS (HRAS wild-type protein; [6]) | NRAS /KRAS [2, 7] | HRAS /KRAS (HRAS wild-type protein; [8]) | NRAS /KRAS ([2]; ratio of the KD value with respect to GDP-bound NRAS wild-type protein to the KD value with respect to KRAS) | HRAS /KRAS (HRAS wild-type protein; ratio of the KD value with respect to HRAS wild-type protein to the KD value with respect to KRAS)
6 | – | 7.54 | – | 9.43 | CCCOC[C@H]1C(=O)N[C@@H]([C@@H](C)CC)C(=O)N(C)CC(=O)N(C)[C@H]2C/C=C\CCN(C2=O)[C@@H](Cc2ccc(C(F)(F)F)cc2)C(=O)N(C)CC(=O)N[C@@H](CCc2ccc(Cl)c(Cl)c2)C(=O)N2C[C@H](OCC)C[C@H]2C(=O)NC2(CCC2)C(=O)N(C)[C@@H](C2CCCC2)C(=O)N(C)[C@H](C(=O)N(C)CCC)CC(=O)N1C [PP2830] | – | – | A (a compound having 10 or more and less than 20 is denoted as A) | A (a compound having 10 or more and less than 20 is denoted as A) | – | –
7 | 10.29 | 8.19 | – | – | CC[C@H](C)[C@@H]1NC(=O)[C@H](CC2CC2)N(C)C(=O)C[C@@H](C(=O)N(C)C)N(C)C(=O)[C@H](C2CCCC2)N(C)C(=O)C2(CCC2)N(C)C(=O)[C@@H]2C[C@@H](C)CN2C(=O)[C@H](CCc2cc(F)c(C(F)(F)F)c(F)c2)NC(=O)CN(C)C(=O)[C@H](Cc2ccc(C)cc2)N2CC/C=C\C[C@@H](C2=O)N(C)C(=O)CN(C)C1=O [PP1800] | A (a compound having 10 or more and less than 20 is denoted as A) | A (a compound having 10 or more and less than 20 is denoted as A) | – | – | – | –
8 | 10.09 | 8.00 | – | – | CCCN(C)C(=O)[C@@H]1CC(=O)N(C)[C@@H](CC(F)F)C(=O)N[C@@H]([C@@H](C)CC)C(=O)N(C)CC(=O)N(C)[C@H]2C/C=C\CCN(C2=O)[C@@H](Cc2ccc(C(F)(F)F)cc2)C(=O)N(C)CC(=O)N[C@@H](CCc2ccc(C(F)(F)F)c(OC)c2)C(=O)N2C[C@@H](C)C[C@H]2C(=O)NC2(CCC2)C(=O)N(C)[C@@H](C2CCCC2)C(=O)N1C [PP2024] | – | – | – | – | A (a compound having 10 or more and less than 20 is denoted as A) | B (a compound having 3 or more and less than 10 is denoted as B)
